Test results: patent publication US5206234A, “Benzolactam analogs as antagonists of CCK” (priority 1991, dated 1993)
Where two headings read alike, the source gives them in different places.

How the values were obtained:
anxiety (mice) = details: rodents; Crawley / Jones; cited from earlier work
[1] = system: exploratory behavior of the rat; experiment: Exploratory behavior in automated activity cages, novel environment; assay type: in vivo, rat (Male Sprague Dawley); details: CCK-8 0.5-16 μg/kg i.p., 30 minutes; F(6,87)=3.21 (p<0.01)
Method: B. The effects of CCK-8 and compound A on the exploratory behavior of the rat were examined in automated activity cages and by direct observation. It is known that exogenous CCK-8 decreases exploratory behavior in rats in a novel environment by accelerating the process of habituation. [See Crawley, Pharm. Biochem & Behav. 20, 23-27 (1984).]
Expt 1. Male Sprague Dawley rats were injected ([…].) with CCK-8 and immediately placed in automated activity cages. Activity was measured for 30 minutes past injection.
Expt 2. Male SD rats were injected (s.c.) with the CCK antagonist compound A (0.0001-10 mg/kg) and immediately placed in the automated activity cages.

[2] = system: CCK-A and CCK-B receptors; details: cited from earlier work
humans = details: cited from earlier work
CCK-A receptors = details: cited from earlier work
CCK-B receptors = details: cited from earlier work
[3] = Deschodt-Lanckman et al.; cited from earlier work
[4] = system: exploratory behavior of the rat; details: McElroy et al.; cited from earlier work

Molecule	Receptor selectivity as agonist [2]	Affinity for CCK-A receptors (CCK-A receptors)	Affinity for CCK-B receptors (CCK-B receptors)	other results
CN1C(=O)CN=C(c2ccccc2)c2cc(Cl)ccc21 [diazepam]	–	–	–	Preference of the animal for the black dimly lit side (anxiety (mice)): decrease the preference of the animal for the black dimly lit side of the apparatus
CCK-8: exogenous CCK-8, equipotent as an agonist at CCK-A and CCK-B receptors	equipotent as an agonist at CCK-A and CCK-B receptors	–	–	Locomotor activity [1]: dose-dependently decreased locomotor activity; Effect in humans (panic, gastrointestinal effects) (humans; studies in humans): induced gastrointestinal effects but not panic symptoms
CSCC[C@H](NC(=O)[C@@H](N)Cc1c[nH]c2ccccc12)C(=O)N[C@@H](CC(=O)O)C(=O)N[C@@H](Cc1ccccc1)C(N)=O [CCK-4]	preferential CCK-B receptor agonist	lower affinity	high affinity	Effect in humans (panic, gastrointestinal effects) (humans; in vivo): induce panic
CSCC[C@H](NC(=O)[C@H](Cc1ccc(OS(=O)(=O)O)cc1)NC(=O)[C@@H](N)CC(=O)O)C(=O)NCC(=O)N[C@@H](Cc1c[nH]c2ccccc12)C(=O)N[C@@H](CCSC)C(=O)N[C@@H](CC(=O)O)C(=O)N[C@@H](Cc1ccccc1)C(N)=O [CCK-8s, H-Asp-Tyr(SO3 H)-Met-Gly-Trp-Met-Asp-Phe-NH2]	–	high affinity	high affinity	Half-life [3]: less than 1 hour
CNC1=Nc2ccc(Cl)cc2C(c2ccccc2)=[N+]([O-])C1 [chlordiazepoxide]	–	–	–	Spontaneous locomotor activity in rats in a novel environment [4]: increases spontaneous locomotor activity
